In patent publication US10155742B2, “Halofuginol derivatives and their use in cosmetic and pharmaceutical compositions” (President and Fellows of Harvard College, priority 2012, dated 2018):

Experiments:
[1] = test system: mouse embryo fibroblasts (MEFs); experiment: HF and proline effects on mouse embryo fibroblasts (gene expression, ECM protein production, protein synthesis); format: cell-based
Procedure: A) Primary murine CD4^+ CD25^− T cells were activated through the T-cell receptor in Th17 polarizing conditions (Sundrud et al. Science 324:1334-8 (2009)) in the presence of either 10 nM MAZ1310 or HF and the following amino acid supplements: 10× concentration of essential (EAA) or non-essential (NEAA) amino acids mixtures (Biowhittaker or Invitrogen, respectively), or 10× concentrations (1 mM) of indicated individual amino acids. Data are presented as mean percentage of Th17 (IL-17+ IFNg−) cells +/−SD from triplicate wells. B) Th17 differentiation was assayed as described above, in the absence or presence of HF or borrelidin, with or without 1 mM threonine or proline supplementation. C) MEFs were treated with or without HF (50 nM) and/or proline (2 mM) for 4 hours (CHOP, S100A4) or 24 hours (ColIA1, Col1A2). mRNA expression was normalized to expression of TBP and is shown relative to untreated control. […] Confidence intervals (p-value) for the effect of HF alone versus HF+Pro were determined using a two-tailed Student's t test. Data are representative of two separate experiments. D) Cells were pre-incubated for 24 hours with HF and proline as indicated, and secretion of Type I procollagen was measured after 24 hours in conditioned medium of cells plated by Western blot and quantitated using Image J software (top panel). Total protein synthesis was measured as TCA-precipitable ^35S in a scintillation counter (bottom panel).
MEFs were incubated for 4 hours in HF with or without 2 mM proline, to measure new collagen production in conditioned medium. Cells were washed into fresh DMEM/0.2% FBS, and proline or HF re-added, and either conditioned medium (for Type I procollagen) or total cell lysate (for fibronectin, c-actin) and were harvested after 24 hours. Triplicate plates of cells for each condition were treated, harvested, and blotted in parallel. Protein levels were assayed by Western blot, detected using chemiluminescence, and film exposure was quantitated using Image J software.
For assays of HF and proline effects on fibroblasts, mouse embryo fibroblasts were grown in 10% FCS/DMEM. For studies of TGFβ signaling, ^35S methionine incorporation into total protein, and collagen production, cells were shifted into 0.2% FCS/DMEM 24 hours before the addition of HF or proline. For examination of protein expression and phosphorylation, cells were lysed in RIPA with 5 mM EDTA, 1× PhosStop (Roche), and 1× Complete protease inhibitor mix (Roche), and assayed by Western blot as described above. For analysis of gene expression, cells were lysed in Trizol (Invitrogen) and gene expression quantitated by quantitative RT-PCR using the Roche UPR Light-Cycler system.

[2] = test system: Th17 cell differentiation (primary murine CD4+ CD25- T cells); details: from PCT/US08/09774; read-out: 50% inhibition of Th17 cell development; cited from earlier work
[3] = test system: translation in rabbit reticulocyte lysate (RRL); experiment: In vitro translation assay in rabbit reticulocyte lysate (RRL)
[4] = test system: primary human prostate stromal (hPrSc) cells, col1a1; experiment: Type I collagen (col1a1) mRNA in primary human prostate stromal cells; format: cell-based; details: treated twice for 48 hours, FIG. 27
Procedure: Primary human prostate stromal (hPrSc) cells were left in low-serum media (0.2%) for 24 hours, and treated consecutively twice for 48 hours, halofuginone (HF) or halofuginol (HFol) at the concentrations indicated. Relative mRNA levels of the myofibroblastic markeralpha 1 collagen type 1 (col1a1) was measured by quantitative real-time PCR using glyceraldehyde-3-phosphate dehydrogenase (GAPDH) as internal control.

[5] = molecular target: T1, prolyl tRNA synthetase domain of human EPRS (ProRS) (Homo sapiens, UniProt P07814); details: 3H Pro incorporation into tRNA
T1 sequence (P07814 998-1512 limits assumed): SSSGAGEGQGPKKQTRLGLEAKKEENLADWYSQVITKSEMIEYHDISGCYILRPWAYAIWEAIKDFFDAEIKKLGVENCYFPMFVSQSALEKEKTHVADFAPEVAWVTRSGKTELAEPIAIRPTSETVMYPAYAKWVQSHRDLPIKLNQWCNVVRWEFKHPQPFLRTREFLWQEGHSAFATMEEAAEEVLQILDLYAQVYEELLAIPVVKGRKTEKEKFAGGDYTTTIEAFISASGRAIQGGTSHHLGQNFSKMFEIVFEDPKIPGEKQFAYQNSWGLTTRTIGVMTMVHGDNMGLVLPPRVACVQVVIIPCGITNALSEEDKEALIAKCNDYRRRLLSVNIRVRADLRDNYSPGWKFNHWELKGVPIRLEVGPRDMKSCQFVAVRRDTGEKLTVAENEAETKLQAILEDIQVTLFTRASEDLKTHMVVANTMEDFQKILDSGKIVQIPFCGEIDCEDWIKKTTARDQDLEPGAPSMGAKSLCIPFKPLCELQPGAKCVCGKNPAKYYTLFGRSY
Procedure: Activity of the Prolyl tRNA synthetase domain of EPRS (ProRS) was measured as ^3H Pro incorporation into the charged tRNA pool. […] Purified enzyme was visualized as a single band by Laemmli gel electrophoresis/Coomassie staining.
Purified enzyme was visualized as a single band by Laemmli gel electrophoresis/Coomassie staining. […] In preliminary experiments, the assay was established to be linear over the time (6 min) and conditions used (30 degrees, 2 mM ATP, 1 μg/μl total tRNA purified from rabbit liver).
For the rapid, quantitative isolation of aminoacylated tRNA^pro from synthetase reaction mixtures, reactions were stopped with 100 μl of ice cold 20 mM MOPS pH6.2, 200 mM NaCl, 10 mM EDTA, 30% Glycerol and placed on ice. Samples were added to 15 μl of packed Mono Q HP beads (GE Healthcare) equilibrated in the same buffer. Samples were incubated with beads on ice for 10 min, beads were pelleted by 5 sec centrifugation in a tabletop microfuge and washed 3× 1 ml of wash buffer (20 mM MOPS pH6.2, 50 mM NaCl), and recovered pellets counted in a liquid scintillation counter. Background binding of ^3H Pro to beads (using reaction mix with either no enzyme added or no tRNA added) was negligible (20-40 cpm).

[6] = test system: Th17-driven multiple sclerosis model; details: Sundrud et al. 2009; cited from earlier work
[7] = test system: P. falciparum (Dd2); experiment: In vitro P. falciparum viability assay with excess proline; format: cell-based, Plasmodium falciparum; details: Dd2 strain in red blood cells, relative to unmodified RPMI, FIG. 23
Procedure: The activity of halofuginone and amodiaquine as inhibitors of P. falciparum growth was tested in erythrocytes in RPMI with or without excess amino acids as indicated, and IC50 values were normalized to IC50 values obtained under standard conditions using unmodified RPMI (numbers in bold). The absolute IC50 values for halofuginone and amodiaquine for RPMI are reported in parentheses. Fold amino acid indicated (e.g., “5×”) is relative to the concentration of the respective amino acid in RPMI. Fold concentration of D-Pro and L-Orn are relative to L-Pro.
In vitro potency against P. falciparum (DD2) was assessed using a modified version of the method of Plouffe and coworkers (Plouffe et al. Proc. Natl. Acad. Sci. USA 105:9059-64 (2008)). Parasites were cultured in the presence of drug in RPMI (Sigma) containing 4.16 mg/ml Albumax in a total volume of 50 μl at a 2.5% hematocrit and an initial parasitemia of 0.3% in black Greiner GNF clear-bottom plates. Cultures were incubated 72 hr at 37° C. under […], 4% CO2 and 3% O2. At the end of the incubation, SYBR green was added to a dilution of 1:10,000 and plates were stored overnight (or until ready to be read) at −80° C. Just before reading, plates were centrifuged at 700 rpm and fluorescence was read using 480 nm excitation and 530 nm emission frequencies. Compound concentrations that inhibit parasite replication reduce the fluorescence intensity of SYBR green bound to parasite DNA.

[8] = inhibitor 1 μM, anti-myc Western blot, FIG. 2C

Compound: O=C(C[C@H]1NCCC[C@@H]1O)Cn1cnc2cc(Br)c(Cl)cc2c1=O (racemic) [HF, 7-bromo-6-chloro-3-[3-(3-hydroxy-2-piperidinyl)-2-oxopropyl]-4(3H)-quinazolinone]
- production of secreted Type I procollagen and fibronectin ([1]; 24 hours treatment, FIG. 6D): dramatically inhibited
- mRNA levels of Col1A1, Col1A2, and S100A4 ([1]; MEFs, HF 50 nM, 4 or 24 hours, FIG. 6C): inhibits
- expression of mRNA encoding CHOP ([1]; MEFs, HF 50 nM, 4 hours, FIG. 6C): stimulated
- 35S-methionine incorporation into total protein ([1]; same doses as ECM protein inhibition, FIG. 6D): did not significantly change
- IC50 [2]: ~3 nM
- translation of Nopropep (proline-free polypeptide) [3, 8]: no effect
- translation of Propep (proline dipeptide containing polypeptide) [3, 8]: prevent translation
- inhibition of translation of luciferase RNA in RRL ([3]; luminescence assay, FIG. 2A/2B): inhibited
- Type 1 collagen expression in fibroblasts in culture [4]: inhibit
- inhibition of ProRS activity [5]: inhibits
- development of disease [6]: inhibits
- fold increase of effective IC50 on addition of 5× proline [7]: roughly 7 fold
